Where “and” joins values, the source holds several entries; their conditions need not be identical. Equal values may be shown once.
Key:
[1] = test system: AMPK-α (phospho-Thr172); assay: AMPK activation, western blot of phospho-AMPK-α in MDBK cells; type: cell-based, Bos taurus; conditions: for p-alpha, average normalised to control: Averages of experiments 1-3, 18 hours; for p-alpha: band intensity
Description: MDBK cells were seeded at 1 × 10^6 cells per 6 cm dish in DMEM containing 10 % FBS. […] After 18 h cells were harvested by a rapid lysis procedure: cells were rinsed with PBS, then lysed using ice-cold buffer containing 50 mM HEPES, 1 mM EDTA, 10 % glycerol, 50 mM NaF, 5 mM sodium pyrophosphate, 1 % Triton-X100, 1 mM dithiothreitol (DTT), and a protease inhibitor cocktail (Roche). The cell lysate was centrifuged at 14,000 × g for 20 min at 4 °C and the protein concentration of the supernatant determined by bicinchoninic acid assay. The lysate was analyzed using Novex 3–12 % bis-Tris gels run in 3-(N-morpholino)propanesulfonic acid (MOPS) buffer (20 μg of protein per lane) followed by transfer to low fluorescence polyvinylidene fluoride membranes by wet transfer. Primary rabbit antibodies for AMPK-β (57C12), AMPK-α (phospho-Thr172) (40H9), and acetyl-coA carboxylase (phospho-Ser79) (Cell Signaling Technology) were incubated overnight with the membrane (1:1000 dilution) in Odyssey blocking buffer at 4 °C. A fluorescent secondary antibody was used (IRDYE800CW from LI-COR Biosciences, 1:20,000 dilution) with a LI-COR Odyssey imaging system.

[2] = test system: permeabilized 143B cells; assay: ADP-stimulated rotenone-sensitive OCR in permeabilized 143B cells; type: cell-based, human; design: rotenone sensitive OCR after ADP stimulation, individual replicates / rotenone sensitive OCR after ADP stimulation, average: unit not given here; conditions: for rotenone sensitive OCR after ADP stimulation, % of control, average / rotenone sensitive OCR after ADP stimulation, average / rotenone sensitive OCR after ADP stimulation, % of control, individual replicates / rotenone sensitive OCR after ADP stimulation, individual replicates: 143B permeabilised cells; for rotenone sensitive OCR after ADP stimulation, % of control, average / rotenone sensitive OCR after ADP stimulation, average: average of replicates; for rotenone sensitive OCR after ADP stimulation, % of control, individual replicates / rotenone sensitive OCR after ADP stimulation, individual replicates: replicate 1-11; for inhibition of the OCR (in words): permeabilized 143B cells, biguanide concentration equal to IC50
Description: For permeabilized cell experiments, cells were seeded into XF96 plates at 0.9–1.1 × 10^4 per well and incubated for 48 h at 37 °C in 5 % CO2. Then, the growth medium was exchanged for assay buffer containing 3 nM plasma membrane permeabilizer ‘PMP’ (Seahorse Biosciences Inc.), 10 mM glutamate, 10 mM malate, 220 mM mannitol, 70 mM sucrose, 10 mM KH2PO4, 5 mM MgCl2, 1 mM EGTA, 0.2 % fatty acid-free bovine serum albumin (BSA), and 2 mM HEPES (pH 7.4 at 37 °C). […] The biguanides were allowed to accumulate for 30 min, then respiration was […] by the addition of 4 mM ADP. Rotenone was added (2 μM) at the end of the experiment.
(§1) Rotenone-sensitive OCRs were calculated by subtracting the rotenone-insensitive rates (determined at the end of the experiment). OCRs were normalized by dividing by the OCR recorded immediately prior to the addition of biguanide. For rate of uptake calculations, the OCRs at time points after biguanide addition were divided by the OCRs at the same time points in control experiments. Data from wells with failed port injections were excluded from the analyses. The respiratory control ratio (RCR) values (state III versus state IV respiration) were ~11 and ~6 for permeabilized MDBK and 143B cells, respectively.

[3] = test system: bovine mitochondrial membranes (complexes II-III-IV); assay: Succinate:O2 oxidoreduction (complexes II-III-IV, complex II assay) by bovine mitochondrial membranes; type: biochemical, Bos taurus; conditions: biguanide concentrations set to the IC50 values for NADH:O2 on bovine membranes; control = 100.00; n = 3
Description: Assays were performed at 32 °C in a SpectraMax 96-well plate reader. NADH:decylubiquinone oxidoreduction by complex I at 0.5 μg mL^−1 was measured in 20 mM Tris-HCl (pH 7.2), 0.15 % soy bean asolectin (Avanti Polar Lipids), and 0.15 % 3-((3-cholamidopropyl)dimethylammonium)-1-propanesulfonate (CHAPS, Merck Chemicals Ltd), with 200 μM decylubiquinone and 200 μM NADH, and monitored using ε340–380(NADH) = 4.81 mM^−1 cm^−1 [23]. Catalysis was initiated by addition of NADH and maximal rates determined by linear regression. NADH:O2 oxidoreduction by membranes was measured similarly but using 5 μg mL^−1 membranes in 10 mM Tris-HCl (pH 7.4) and 250 mM sucrose using 200 μM NADH and supplemented with 0.15 mM horse heart cytochrome c (Sigma-Aldrich Ltd.). Succinate:O2 oxidoreduction was measured using 40 μg mL^−1 membranes in 5 mM succinate in 10 mM Tris-HCl (pH 7.4) as described previously. Control experiments included NaCl (to match the ionic strength) or DMSO, as appropriate.

[4] = test system: MDBK cells; assay: Rotenone-sensitive oxygen consumption rate in intact MDBK cells; type: cell-based, Bos taurus; design: key to rotenone sensitive OCR after 40 mins of biguanide exposure / rotenone sensitive OCR after 40 mins of biguanide exposure, average: % of OCR recorded immediately before biguanide addition; conditions: biguanide at IC50/10; for rotenone sensitive OCR after 6 hours of biguanide exposure, % control, average / rotenone sensitive OCR after 6 hours of biguanide exposure, average: MDBK cells; for rotenone sensitive OCR after 6 hours of biguanide exposure, average: OCR normalized to OCR immediately prior to biguanide addition; for rotenone sensitive OCR after 40 mins of biguanide exposure, % control, average / rotenone sensitive OCR after 40 mins of biguanide exposure, average / rotenone sensitive OCR after 40 mins of biguanide exposure / rotenone sensitive OCR after 40 mins of biguanide exposure, % control: MDBK intact cells; for rotenone sensitive OCR after 40 mins of biguanide exposure, % control, average / rotenone sensitive OCR after 40 mins of biguanide exposure, average: average of replicates; for rotenone sensitive OCR after 40 mins of biguanide exposure / rotenone sensitive OCR after 40 mins of biguanide exposure, % control: individual replicates
Description: 143B (CRL-8303 from ATCC), HepG2 (85011430 from The Health Protection Agency), and MDBK (CCL-22 from ATCC) cells were grown on Dulbecco’s modified Eagle’s medium (DMEM) supplemented with 10 % fetal bovine serum (FBS, Thermo Fisher Scientific) at 37 °C in 5 % CO2. All cells were confirmed as negative for mycoplasma.
Oxygen consumption rates (OCRs) were measured using a Seahorse XF96 extracellular flux analyzer at 37 °C. For intact cell measurements, 1.4 × 10^4 143B, HepG2, or MDBK cells were plated (per well) in DMEM containing 10 % FBS into Seahorse Bioscience Inc. XF96 plates and incubated for ~12 h at 37 °C in 5 % CO2. Then, the medium was exchanged for assay buffer containing DMEM, 4.5 g L^−1 glucose, 1 mM pyruvate, 32 mM NaCl, 2 mM GlutaMAX, 15 mg L^−1 phenol red, and 20 mM HEPES (pH 7.4 at 37 °C) and the cells placed in a CO2-free incubator at 37 °C for 30 min. Basal oxygen consumption rates were established before the addition of biguanides at one-tenth of their IC50 (IC50/10), and followed for ~ 6 h before the addition of rotenone (2 μM).
as §1

SMILES | p-alpha, average normalised to control [1] | p-alpha / AMPK beta ([1]; Experiment 1, 18 hours) | p-alpha / AMPK beta normalised to control ([1]; Experiment 1, 18 hours) | p-alpha ([1]; Experiment 1, 18 hours) | p-alpha / AMPK beta ([1]; Experiment 2, 18 hours) | p-alpha / AMPK beta normalised to control ([1]; Experiment 2, 18 hours) | p-alpha ([1]; Experiment 2, 18 hours) | p-alpha / AMPK beta ([1]; Experiment 3, 18 hours) | p-alpha / AMPK beta normalised to control ([1]; Experiment 3, 18 hours) | p-alpha ([1]; Experiment 3, 18 hours) | rotenone sensitive OCR after ADP stimulation, % of control, average [2] | rotenone sensitive OCR after ADP stimulation, % of control, individual replicates [2] | rotenone sensitive OCR after ADP stimulation, individual replicates [2] | Complex II assay (succinate:O2 oxidoreduction), average [3] | rotenone sensitive OCR after 6 hours of biguanide exposure, % control, average [4] [% control] | rotenone sensitive OCR after 6 hours of biguanide exposure, average [4] | rotenone sensitive OCR after 40 mins of biguanide exposure, % control, average [4] [% control] | rotenone sensitive OCR after 40 mins of biguanide exposure, average [4] | rotenone sensitive OCR after 40 mins of biguanide exposure [4] | rotenone sensitive OCR after 40 mins of biguanide exposure, % control [4] | further results
CC(C)N=C(N)N=C(N)N [compound 4, 1-(diaminomethylidene)-2-(propan-2-yl)guanidine] | 12.85 | 1.65 | 13.27 | 732 | 1.91 | 13.08 | 500 | 2.53 | 12.19 | 499 | 4.94 % of control | -1.48 % of control and 3.88 % of control and 15.33 % of control and 9.59 % of control and 8.04 % of control and 7.71 % of control and 5.26 % of control and 0.97 % of control and -3.74 % of control and 3.83 % of control | -3.53 and 9.26 and 36.59 and 22.89 and 19.19 and 18.41 and 12.55 and 2.31 and -8.93 and 9.14 | 101.59 | 18.29 | 18.34 | 93.72 | 95.36 | 95.78 and 95.98 and 96.95 and 94.61 and 94.86 and 94.00 | 94.13 % control and 94.32 % control and 95.28 % control and 92.98 % control and 93.22 % control and 92.38 % control | rotenone sensitive OCR after ADP stimulation, average [2]: 11.79
[H]/N=C(\N/C(=N/[H])Nc1ccc(Cl)cc1)NC(C)C [proguanil, reference compound] | 1.33 | 0.15 | 1.20 | 71.3 | 0.19 | 1.32 | 68.2 | 0.30 | 1.47 | 59.7 | 106.21 % of control | 79.43 % of control and 103.02 % of control and 144.04 % of control and 93.57 % of control and 102.53 % of control and 101.42 % of control and 111.43 % of control and 105.36 % of control and 115.13 % of control | 189.61 and 245.92 and 343.85 and 223.38 and 244.75 and 242.11 and 266.00 and 251.51 and 274.84 | 95.35 | 89.87 | 90.15 | 96.96 | 98.65 | 102.33 and 100.74 (2×) and 97.32 and 96.18 and 94.63 | 100.56 % control and 99.00 % control and 99.01 % control and 95.64 % control and 94.52 % control and 93.00 % control | rotenone sensitive OCR after ADP stimulation, average [2]: 253.55; inhibition of the OCR (in words) [2]: only limited inhibition
CC(C)N=C(N)N=C(N)NC(C)C [compound 5, N-(propan-2-yl)-1-3-(propan-2-yl)carbamimidamidomethanimidamide] | 1.21 | 0.13 | 1.05 | 62.5 | 0.17 | 1.19 | 52.5 | 0.29 | 1.38 | 51.1 | 45.65 % of control | 36.39 % of control and 47.66 % of control and 76.44 % of control and 36.22 % of control and 38.53 % of control and 52.52 % of control and 38.52 % of control and 38.94 % of control | 86.86 and 113.77 and 182.47 and 86.47 and 91.97 and 125.38 and 91.96 and 92.95 | 100.71 | 95.30 | 95.59 | 97.92 | 99.64 | 98.03 and 101.32 and 101.34 and 98.05 and 98.68 and 101.35 and 98.70 | 96.34 % control and 99.57 % control and 99.60 % control and 96.36 % control and 96.98 % control and 99.61 % control and 97.00 % control | rotenone sensitive OCR after ADP stimulation, average [2]: 108.98; inhibition of the OCR (in words) [2]: only limited inhibition
[H]/N=C(/N)N/C(=N/[H])NCCc1ccccc1 [phenformin, reference compound] | 3.64 | 0.44 | 3.54 | 203 | 0.63 | 4.29 | 234 | 0.64 | 3.08 | 154 |  | 10.68 % of control and 13.07 % of control and 7.19 % of control and 19.54 % of control and 11.54 % of control and 11.56 % of control and 7.70 % of control and 13.62 % of control and 4.19 % of control and 11.40 % of control and 4.31 % of control | 25.49 and 31.21 and 17.16 and 46.64 and 27.56 and 27.59 and 18.38 and 32.52 and 10.00 and 27.22 and 10.30 | 95.51 | 42.78 | 42.91 | 95.24 | 96.91 | 97.35 and 95.76 and 94.48 and 101.29 and 95.15 and 97.44 | 95.67 % control and 94.11 % control and 92.85 % control and 99.55 % control and 93.51 % control and 95.76 % control | AMPK activation (in words) ([1]; 18-h treatment, IC50/10 biguanide concentrations): slightly lower activation

— article PMC4977651, “Molecular features of biguanides required for targeting of mitochondrial respiratory complex I and activation of AMP-kinase” (BMC Biology, 2016)
